What was measured:
[1] = Measurement of lipophilicity (octanol / PBS pH 7.4); format: physicochemical; settings: octanol/PBS pH 7.4
Experimental: The logP of [^18F]SDM-16 was determined by a method modified from previously published procedures. Briefly, an aliquot of […] (10 µCi) of the radioligand was added to a 2-mL microtube containing 0.8 mL of octanol and 0.8 mL of 1 × phosphate buffered saline (1 × PBS, pH 7.4). The mixture was vortexed for 30 s and then centrifuged at 2000 g for 2 min. A subsample of the octanol (0.1 mL) and 1 × PBS (0.5 mL) layers was evaluated with a gamma counter. The major portion of the octanol layer (0.5 mL) was diluted with another 0.3 mL of octanol, mixed with a fresh portion of 0.8 mL of PBS, vortexed, centrifuged, and analyzed as described above. This process was repeated until consistent log P values were obtained, with five consecutive equilibration procedures being performed for each logP measurement. Four separate measurements were performed for [^18F]SDM-16 on different days.

[2] = Plasma radiometabolite analysis during PET scans; format: in vivo, rhesus monkeys
Experimental: Arterial blood samples were collected during the PET scans to measure the radioactivity in plasma for generation of the metabolite-corrected arterial plasma input function. Plasma radiometabolite analysis was performed using the column-switching method, following a published protocol. Briefly, arterial blood samples were collected at 3-, 8-, 15-, 30-, 60-, 90-, 120-, and 180-min post-injection (p. i.), treated with urea (8 M), filtered, and injected onto a self-packed short column (4.6 × 19 mm) eluting with 1% MeCN in water at a flow rate of 2 mL/min. The sample was then back flushed onto a Gemini-NX column (5 μm, 4.6 mm × 250 mm) eluting with 40% MeCN/60% 0.1 M ammonium formate (pH 6.4) at a flow rate of 1.2 mL/min. The eluent was fraction-collected using an automated spectrum chromatography CF-1 fraction collector. Activity in the whole blood, plasma, filtrated plasma-urea mix, filters, and HPLC fractions were counted with automatic gamma well-counter (Wizard 2, PerkinElmer). The sample recovery rate, extraction efficiency, and HPLC fraction recovery were monitored. The unmetabolized [^18F]SDM-16 parent fraction was determined as the ratio of the sum of radioactivity in fractions containing the parent compound to the total amount of radioactivity collected and fitted with inverted Gamma4 approaches.
[^18F]SDM-16 had higher metabolite-corrected plasma SUV than the other SV2A radiotracers, indicating slower plasma clearance and higher metabolic stability (Fig. 2a). Whole-blood and plasma-input functions were highly consistent between the two animals, with a stable plasma to whole-blood ratio of 0.93 ± 0.13 over the entire 180-min acquisition period (Fig. S1).

logP [1]: 1.65 ± 0.05
parent fraction in plasma ([2]; 30 min p.i.): 89 ± 5%
parent fraction in plasma ([2]; 120 min p.i.): 80 ± 7%
plasma to whole-blood ratio ([2]; over 180-min acquisition): 0.93 ± 0.13
Structure (SMILES): Cc1nccn1CN1C[C@@H](c2cc(F)cc([18F])c2)CC1=O [[^18F]SDM-16, (R)-4-(3-fluoro-5-(fluoro-^18F)phenyl)-1-((2-methyl-1H-imidazol-1-yl)methyl)pyrrolidin-2-one]
